According to ChEMBL document CHEMBL1148183, “Anti-inflammatory activity of two flavonoids from Tanacetum microphyllum” (1993):
The source made the active and inactive calls. The rule behind the calls is not given here.

How the values were obtained:
Mus musculus [1] = assay: Antiinflammatory activity against carrageenan-induced paw edema in Swiss mouse at 10 mg/kg, po administered 1 hr before carrageenan challenge measured after 3 hrs; assay type: functional
Mus musculus [2] = assay: Antiinflammatory activity against carrageenan-induced paw edema in Swiss mouse at 10 mg/kg, po administered 1 hr before carrageenan challenge measured after 5 hrs; assay type: functional
Mus musculus [3] = assay: Antiinflammatory activity against carrageenan-induced paw edema in po dosed Swiss mouse administered 1 hr before carrageenan challenge measured after 7 hrs; assay type: functional, organism-based
Mus musculus [4] = assay: Antiinflammatory activity against carrageenan-induced paw edema in Swiss mouse at 80 mg/kg, po administered 1 hr before carrageenan challenge measured after 3 hrs; assay type: functional
Mus musculus [5] = assay: Antiinflammatory activity against carrageenan-induced paw edema in Swiss mouse at 80 mg/kg, po administered 1 hr before carrageenan challenge measured after 5 hrs; assay type: functional
Mus musculus [6] = assay: Antiinflammatory activity against carrageenan-induced paw edema in Swiss mouse at 25 mg/kg, po administered 1 hr before carrageenan challenge measured after 3 hrs; assay type: functional
Mus musculus [7] = assay: Antiinflammatory activity against carrageenan-induced paw edema in Swiss mouse at 25 mg/kg, po administered 1 hr before carrageenan challenge measured after 5 hrs; assay type: functional

In the case of `COC(=O)c1cc(O)c2c(=O)c(O)c(-c3ccc(OC)c(O)c3)oc2c1`, the inhibition in vivo at 10 mg/kg (Mus musculus [1]) is reported as 64.9%, the inhibition in vivo at 10 mg/kg (Mus musculus [2]) is reported as 52.7% and the Activity (Mus musculus [3]) is reported as “Active”.

With `CCCCC1C(=O)N(c2ccccc2)N(c2ccccc2)C1=O` [PHENYLBUTAZONE] the inhibition in vivo at 80 mg/kg (Mus musculus [4]) was 51.4% and the inhibition in vivo at 80 mg/kg (Mus musculus [5]) was 47.2%.

`COc1ccc(-c2oc3cc(O)c(OC)c(O)c3c(=O)c2OC)cc1O` [CENTAUREIDIN] showed an inhibition in vivo at 25 mg/kg (Mus musculus [6]) of 67.6% and an inhibition in vivo at 25 mg/kg (Mus musculus [7]) of 55.5%.
